# “Also recorded” adds a separate entry of the source. Read-outs that look alike come from different tables or passages of the source.
# Assays:
# [1] = rat, in vivo
# Method: (§1) The anterior segment of the eye was examined using a slit-lamp biomicroscopy for excluding any animals with abnormalities that might interfere with the study. Fundus photography and fluorescein angiography (FA) were performed to document the health of the retina and the ocular circulation using a TRC 50EX fundus camera (Topcon). For FA, 10% sodium fluorescein was injected intravenously (50 mg/kg of body weight) through the tail vein or the vein under the incisor before the procedure.
# (§2) Immediately after placement of laser photocoagulation, the experimental eyes received an intravitreal injection of either a compound or a vehicle as described in Table 5. Following the disinfection of ocular surface with 5% betadine and 0.9% saline solutions, the injections were performed with aid of a surgical microscope using 0.3 mL syringes with a 31-gauge ½-inch long needle (Ultra-Fine II™ Insulin syringe, BD, Franklin Lakes, N.J.).
# (§3) Two weeks after photocoagulation, all rats were examined under anesthesia and pupil dilation with slit-lamp biomicroscopy, fundus photography and FA as described in the baseline examination.
# [2] = system: laser-induced CNV in rats; experiment: Laser-induced choroidal neovascularization in rats (CNV area, fluorescein angiography grades); type: in vivo, Brown Norway rats; conditions: day 14, 200 μg/eye (echistatin 5 μg, Avastin 125 μg); for CNV area / development of CNV on isolectin IB4-labeled flat mounts compared to vehicle-treated controls / Mean score of fluorescein leakage (FA score) compared to vehicle-treated controls: one intravitreal injection after laser; for Number of lesions in FA grade 2 / Number of lesions in FA grade 4 / Number of lesions in FA grade 1 / Number of lesions in FA grade 3: unobstructed lesions
# Method: Fifty six male Brown Norway rats, approximately 200-300 grams of body weight and two months of age, were used in this study. This study was performed in two cohorts and only one eye of each rat was used.
# The pupils were dilated and then the rats were anesthetized as described in baseline examination. The rats were positioned in front of a slit lamp system (Haag-Streit USA, Mason, Ohio). […] A diode laser (OcuLight TX, IRIDEX, Mountain View, Calif.) was used for photocoagulation (532 nm wavelength, 120 mW power, 50 μm spot size and 0.05 seconds duration). For each right eye, a series of six photocoagulation sites were concentrically placed between the major retinal vessels at equal distance (about two optic discs) around the optic nerve head. […] If a significant retinal or subretinal hemorrhage occurred during the laser photocoagulation, then the left eye was be photocoagulated and used as the experimental eye.
# Grade 1 lesions had no hyperfluorescence.
# The eyes were collected on day 14 and immediately fixed in 4% paraformaldehyde in PBS (pH 7.4) for one and half hours, and then transferred into cold PBS and kept at 4° C. for further processing.
# The incubation was performed in a humidified dark chamber with gentle rotation at 4° C. overnight. On the second day, the retinal pigment epithelium (RPE)-choroidsclera complexes were washed with cold IHC buffer, mounted with ProLong® Gold antifade reagent, covered with circular cover glass, and sealed with clear nail polish. Fluorescent images were collected with a confocal microscope (FluoView FV 1000 confocal microscope, Olympus, Center Valley, Pa.) and a 4×, 0.16 numerical aperture objective lens. […] The laser sites were identified by merging images of the green (phalloidin labeling RPE) and the red (isolectin IB4 labeling CNV) channels. CNV complexes were identified using the red channel (isolectin), and their areas were quantified using the FluoView software (Version 1.7a).
# Average FA scores and areas of CNV complexes in each group were presented as mean±SEM, unless otherwise indicated. They were analyzed using a one-way ANOVA followed by a Tukey-Kramer test after Box-Cox transformations. All statistics were performed utilizing the statistical analysis software JMP (SAS Institute, Cary, N.C.). p values ≦0.05 were considered statistically significant.
# [3] = system: human retinal endothelial cells (HREC); experiment: Testing 6: VEGF-induced HREC proliferation (MTS assay), BOL-303055-X and Avastin alone and in combination; type: cell-based; conditions: for Inhibition of VEGF-induced HREC proliferation, agent alone: Avastin 3-300 ng/ml (significant from 30 ng/ml)
# Method: HREC were first cultured overnight in a 96-well plate coated with fibronectin. The next day, cells were serum-starved for 2 hours. The medium containing different agents as shown in Table 12 was pre-incubated for 1 hour before being added into appropriate wells. The cells were further cultured at 37° C., 5% CO2, and 95% humidity for another 3 days. After that, cell proliferation was estimated by the MTS assay—a cell metabolic activity assay (disclosed hereinabove).
# A 96-well plate was coated with human fibronectin (10 μg/ml) for 5 h at 37° C., 5% CO2, and 95% humidity. HREC were collected from flasks by EDTA-trypsin treatment and re-suspended in 10% FBS CS-C medium at 18,000 cells/ml. Cells (200 μl/well) were added to the plate and cultured for overnight at 37° C., 5% CO2, and 95% humidity. Next day, medium was aspirated and serum-free medium was added to wells at 200 μl/well for 2 hours.
# Normal IgG was also added in such a way that all groups contained the same amount of IgG protein. All medium solutions were incubated for 1 h at 37° C., 5% CO2, and 95% humidity. After carefully aspirating the medium from cells, 200 μl of the medium containing different agents was added into appropriate wells. The cells were further cultured for 3 days.
# At the end of incubation, the medium was carefully aspirated from cells and 120 μl of MTS working solution was added into all wells. The plate was incubated at 37° C., 5% CO2, and 95% humidity for 1 hour and then read by a plate reader at 490 nm wavelength.
# Median optical density (OD) was generated from different groups. Data were expressed as mean±SEM of the OD values. Statistical analysis was performed using a three-way ANOVA followed by the contrast procedure on log-transformed data, and P<0.05 was considered statistically significant. […] All the data from the individual wells were fitted to a re-parameterized four-parameter logistic equation to obtain IC50 using similar methodology as that previously described and utilizing the statistical analysis software JMP (SAS Institute, Cary, N.C.).
# [4] = Intraocular pressure (Tono-pen) in monkeys after intravitreal injection; type: in vivo, cynomolgus monkeys (Macaca fascicularis)
# Method: Once the phase Ib study was completed, and it was established that the drug suspension in oil would not interfere with either laser administration, evaluation of CNV or cause adverse effects, phase II was initiated. On days 1, and 15 both eyes of monkeys received 50 μL of Lucentis (0.5 mg/eye), vehicle (0 mg/eye), BOL-303050-X (1.5 mg/eye), BOL-303054-X (1.5 mg/eye) or BOL-303055-X (1.5 mg/eye) (Table 2). Intravitreous injection was performed for each by eye aiming towards mid-vitreous body. Dosing in the right eye was alternated for successive doses (as applicable) at approximately the 11 o'clock and 10 o'clock positions. Dosing in the left eye was alternated for successive doses (as applicable) from approximately the 1 o'clock and 2 o'clock positions.
# IOP was done in conjunction with the OE using a Tono-pen on anesthetized monkeys on days 1, 3, 7, 15, and 31 of dosing Phase II and on the day of scheduled sacrifice (day 38).
# Grade IV lesions were analyzed using either Fisher's exact probability test (2-Tail) or Chi square test (χ2). For the analysis of delta changes in TOP a two-way ANOVA with repeated measures followed by the contrast procedure was performed on Box-Cox transformed data if needed. Unless indicated otherwise, data are presented as means±SEM unless stated otherwise. P<0.05 was considered statistically significant.
# [5] = Ocular clinical findings in rats 14 days after intravitreal injection
# Method: as §1, §2, §3
# [6] = BOL-303055-X 1 nM, VEGF 10 ng/ml
# [7] = Day 14, 200 μg/eye intravitreal
Compound,Intraocular inflammation and retinal vascular congestion [1],CNV area / development of CNV on isolectin IB4-labeled flat mounts compared to vehicle-treated controls [2],Mean score of fluorescein leakage (FA score) compared to vehicle-treated controls [2],Number of lesions in FA grade 2 [2],Number of lesions in FA grade 4 [2],"Inhibition of VEGF-induced HREC proliferation, agent alone [3, 6]","IC50 ± SE of Avastin plus BOL-303055-X on inhibiting VEGF-induced proliferation of HREC ([3]; VEGF 10 ng/ml, BOL-303055-X 1 nM, estimated) [µg/mL]","IOP change compared with baseline ([4]; right eyes day 15, left eyes days 3 and 15)","Increase in IOP compared to baseline ([4]; right eyes, day 31, 1.5 mg/eye intravitreal days 1 and 15) [mm Hg]","Eyes with anterior chamber inflammation/Total eyes [5, 7]","Eyes with retinal vascular congestion/vessel-observable eyes [5, 7]","Posterior synechiae of iris [5, 7]",Number of lesions in FA grade 1 [2],Number of lesions in FA grade 3 [2],"HREC proliferation under basal conditions ([3]; 1 nM, no VEGF)",Enhancement of Avastin potency ([3]; BOL-303055-X 1 nM),"Combination effect with Avastin on VEGF-induced HREC proliferation (synergistic/additive) ([3]; BOL-303055-X 1 nM, Avastin 10 to 100 ng/ml)","Reduction of IOP versus baseline ([4]; day 38 only, 1.5 mg/eye intravitreal days 1 and 15) [mm Hg]",Intraocular inflammation and retinal vascular congestion ([5]; Day 14 after intravitreal injection)
"bevacizumab [Avastin, reference compound]",no intraocular inflammation and retinal vascular congestion was recorded,did not inhibit the development of CNV,smaller means,7,15,dose-dependent inhibition,0.016,,,,,,,,,,,,
CCc1nc(NC[C@H](NC(=O)OCc2ccccc2)C(=O)O)c(C)c(N2CCC(c3ccc4c(n3)NCCC4)CC2)n1 [BOL-303055-X],,smaller area of CNV,smaller means,3,1,reduced VEGF-induced proliferation in a statistically significant manner,,reduced IOP,4,5/6,2/2,Posterior synechiae of iris occurred in several eyes,0,2,significantly inhibited,approximately 3.8 fold,synergistic effects,,
COc1ccc(S(=O)(=O)N[C@@H](CNc2nc(C)nc(N3CCC(c4ccc5c(n4)NCCC5)CC3)c2C)C(=O)O)cc1 [BOL-303050-X],,completely inhibited in a small portion of lesions; also recorded: smaller area of CNV,smaller means,12,2,,,,,0/6,0/5,,6,4,,,,4,Neither inflammation nor retinal vascular congestion was observed
COc1c(NC[C@H](NC(=O)OCc2ccccc2)C(=O)O)ncnc1N1CCC(c2ccc3c(n2)NCCC3)CC1 [BOL-303054-X],,,,0,1,,,,,4/6,4/5,,0,5,,,,,
